In brackets after ≈: the same amount, converted by molar mass.
Columns and labels:
[1] = system: T. gondii tachyzoites (RH strain); assay: microbe, parasite or virus in culture; assay type: cell-based, Toxoplasma gondii
Procedure: The improvements are based on microscopic visual imspection of infected and inhibitor treated cultures, and on quantitation of nucleic acid synthesis of the parasite by measure intake of ^3H uracil onto the parasite's nucleic acid. Uracil is not utilized by mammalian cells. […] Only the RH strain tachyzoites, cultured for up to 72 hours, had been used in previously reported assays. The use of Me49, Ptg, and R5 mutant are unique aspects of the methods used in these assays in this invention.
(§1) In these assays toxicity of a candidate inhibitor was assessed by its ability to prevent growth of human foreskin fibroblasts (HFF) after 4 days and after 8 days as measured by tritiated thymidine uptake and microscopic evaluation. Confluent monolayers of HFF were infected with tachyzoites and bradyzoites. Inhibitor was added one hour later. Non-toxic doses were used in parasite growth inhibition assays. Parasite growth was measured by ability to incorporate tritiated uracil during the last 18 hours of culture.
(§2) First the toxicity of gabaculine was assessed by its ability to prevent growth of human foreskin fibroblasts (HFF) as measured by ^3H-thymidine uptake and microscopic evaluation. Non-toxic doses were used in parasite growth inhibition assays. in vitro parasite growth inhibition assays included confluent monolayers of HFF infected with tachyzoites (RH) or mutant Me49 (R5). Gabaculine was added 1 hour later. Parasite growth was measured by the ability to incorporate ^3H-uracil during the last 18 hours of culture. In addition, parasite growth was evaluated microscopically in Giemsa stained slides.
ii) in vitro Parasite Growth Inhibition Assays: Confluent monolayers of HFF cells, grown in 96-well plates are infected with T. gondii tachyzoites of the RH strain and serial dilutions of anti-microbial compound are applied 1 hour later. T. gondii growth is assessed in these cultures by their ability to incorporate tritiated uracil (2.5 μCi/well) added during the last 18 hours of culture. After harvesting cells with an automatic cell harvester, uracil incorporation is measured by liquid scintillation.

[2] = system: C. parvum; assay: C. parvum infection of MDBKF5D2 cell monolayers, immunofluorescence assay at 48 hours; assay type: cell-based, Cryptosporidium parvum
Procedure: C. parvum oocysts at 50,000/well were incubated at 37° C. (8% CO2) on confluent MDBKF5D2 cell monolayers in 96 well microtiter plates with the following concentrations of each drug. […] The level of infection of each well was determined and analyzed by an immunofluorescence assay at 48 hours using an antibody to C. parvum sporozoites made in rabbits at a concentration of 0.1%. Fluorescein-conjugated goat anti-rabbit antibody was used at a concentration of 1%.
(8% carbon dioxide) on confluent MDBKF5D2 cell monolayers in 96 well microtiter plates. The level of infection of each well was determined and analyzed by an immunofluorescence assay at 48 hours using as an antibody C. parvum sporozoite rabbit anti-serum (0.1%), and using fluorescein-conjugated goat anti-rabbit antibody (1%). Data are expressed as mean parasite count/field when 16 fields counted at 10× magnification “s.d. of the mean” (FIG. 6).

[3] = system: D6 clone of Plasmodium falciparum; assay: P. falciparum in vitro assay (Milhous et al., 1985), D6 clone; assay type: cell-based; conditions: D6, 66 h
[4] = system: Toxoplasma tachyzoites; assay: Light microscopy of T. gondii infected fibroblasts treated with Clodinafop; assay type: cell-based, Toxoplasma gondii; conditions: for parasites in infected fibroblasts: 4-day treatment, one change of medium and inhibitor after 2 days, then 2 more days without inhibitor; for number of T. gondii cells in infected fibroblasts: two days
Procedure: (§3) Structures of fops and dims were tested on the ACC-containing protein extracts of T. gondii described above. Three of the four fops were striking inhibitors of the activity, while none of the dims had any effect against the enzyme. […] Effects of the herbicides on uninfected fibroblasts and on T. gondii growth and replication were tested as previously described by Roberts et al., 1998 using incorporation of radiolabeled thymidine by growing fibroblasts to assess toxicity and incorporation of radiolabeled uracil to measure T. gondii growth and persistence. Anti-parasite activity and toxicity for four fops and one representative dim were determined. Pyrimethamine and sulfadiazine, antimicrobial agents which are known inhibitors of folate synthesis, were included as positive control. […] Consistent with the data for ACC activity in vitro, the inhibitory activity of the fops and the dim on T. gondii growth in fibroblasts was in the same concentration range. […] With regard to toxicity, fops are mildly toxic at the highest concentration, 400 μM. In separate experiments, the effect of Clodinafop on T. gondii was assessed by light microscopy. […] In this experiment, cultures were incubated for 2 more days without the inhibitor.

[5] = system: Toxoplasma gondii ACC; assay: ACC activity in T. gondii tachyzoite protein extracts (carboxyl incorporation from bicarbonate); assay type: biochemical
Source text: In plants, genes encoding enzymes for fatty acid synthesis, including various subunits of ACC except one, are present in the nuclear genome and their protein products are imported and function in plastids. ACC, catalyzing the first committed step of de novo fatty acid biosynthesis, is a known selective target of aryloxyphenoxypropionate (“fops”) and cyclohexanedione (“dims”) herbicides in sensitive species. The molecular mechanism of inhibition/resistance of the enzyme is not know but there is a strong correlation between the enzyme structure and its origin. The high molecular weight multi-domain ACC that is localized in plastids of grasses is extremely sensitive to these herbicides. All of the multi-subunit chloroplast enzymes of dicot plants and bacteria as well as other multi-domain cytosolic ACCs, such as those from man, chicken, rat and yeast, are resistant. ACC activity is conveniently measured in vitro by the incorporation of the carboxyl group from bicarbonate into an acid-stable form using crude protein extracts after Sephadex G50 filtration. […] One band at 240 kDa corresponded to the expected size for a subunit of ACC, while another at 130 kDA corresponded to the size expected for pyruvate carboxylase (PC).
as §3

[6] = system: human foreskin fibroblasts (HFF); assay: Toxicity: growth of fibroblasts, tritiated thymidine uptake and microscopic evaluation; assay type: cell-based; conditions: herbicide experiments
Procedure: as §1, §2
d) Inhibitors: Inhibitor compounds are tested over a range of concentrations for toxicity against mammalian cells by assessing their ability to prevent cell growth as measured by tritiated thymidine uptake and inspection of the monolayer using microscopic evaluation. […]

[7] = system: T. gondii; assay: Assay for synergy in vitro: inhibitors alone and together on replication of T. gondii (uracil CPM); assay type: cell-based, Toxoplasma gondii; conditions: for CPM for B: Drug B alone: Sulfadiazine (6.25 μg/ml), Pyrimethamine (0.025 μg/ml), SHAM (0.78 μg/ml)
Source text: The effect of enzymes in pathways “in parallel” are additive and in “series” are more than the additive effect of either inhibitor used alone (i.e., synergistic). […] The shikimate pathway produces 3,4-dihdroxybenzoate which is converted to ubiquinone, an essential component of the electron transport chain. Thus, NPMG, an inhibitor of EPSP-synthase, indirectly affects ubiquinone production and, thus, the electron transport chain. Similarly, heme is required for production of cytochromes in the electron transport chain. Thus, inhibition of heme production by gabaculine also indirectly affects the conventional electron transport chain. […] T. gondii growth is measured by their ability to incorporate tritiated uracil and is expressed as counts/minute (CPM).
g) Assays for Synergy in vitro: This is an assy in which ≦50% inhibitor concentrations of two antimicrobial agents are added alone and together to determine whether there is an additive, synergistic or inhibitory interaction. All other aspects of this assay are as described herein.

[8] = system: T. gondii; assay: Effect of inhibitors on T. gondii infection in vivo (manifestations, parasitemia, brain cysts); parameters: species or system mice; conditions: mouse
Procedure: Cyst numbers present in a suspension of brain are enumerated, or cyst numbers in formalin fixed paraffin embedded sections are quantitated.
c) Persistance of Cysts: C3H/He mice are infected orally with 100 cysts of T. gondii (Me49 strain). Inhibitors are administered to groups of mice from day 30 post infection to day 50 post infection. Cyst burden, mortality and pathology are compared in treated and control mice on days 30 and 50 post infection and in mice that receive antibody to gamma interferon which leads to recrudescence of disease.
A method to measure the amount of parasitemia in mouse peripheral blood has been developed. Briefly, the target for PCR amplification is the 35 fold repetitive B1 gene of T. gondii and the amplification was performed using primers previously reported. […] Competitive PCR was performed by spiking individual reactions (containing equal amounts of genomic DNA) with a dilution of the internal standard. Since this internal control contains the same primer template sequences, it competes with the B1 gene of T. gondii for primer binding and amplification. The sensitivity of the PCR reaction in each sample can be monitored. Following competitive PCR, the PCR products are distinguished by size and the amount of products generated by the target and internal standard can be compared on a gel. […]

With Oc1cccc2cccnc12 [8-OH-quinoline, 8-hydroxyquinoline] the “activity against T. gondii (tachyzoites)” value [1] was “effective”, the “approximate 95% C1 count (mean parasite count per field)” value ([2]; 8-OH-quinoline 0.1 μg/ml, media alone ~1800) was ~1300 and the “approximate 95% C1 count (mean parasite count per field)” value ([2]; 8-OH-quinoline 1 μg/ml, media alone ~1800) was ~1100. For the same molecule, the “approximate 95% C1 count (mean parasite count per field)” value ([2]; 8-OH-quinoline 10 μg/ml, media alone ~1800) was ~900, the “approximate 95% C1 count (mean parasite count per field)” value ([2]; 8-OH-quinoline 100 μg/ml, media alone ~1800) was ~300 and the IC50 [3] was 1.2 µg/mL (≈ 8.29 µM). The IC90 [3] was 1.88 µg/mL (≈ 13 µM).
With C[C@@H](Oc1ccc(Oc2ncc(Cl)cc2F)cc1)C(=O)O [Clodinafop] the “parasites in infected fibroblasts” value ([4]; 10 μM) was “No parasite cells were found”, the “parasites in infected fibroblasts” value ([4]; 10 μM, listed as clodinafop) was “complete eradication” and the “number of T. gondii cells in infected fibroblasts” value ([4]; 10 μM) was “substantial reduction”. The “number of T. gondii cells in infected fibroblasts” value ([4]; 100 μM) was “almost complete removal”, the “inhibition of ACC activity” value ([5]; 20 μM) was 50% and the “inhibition of ACC activity” value ([5]; 100 μM) was 90%. The “inhibition of growth of T. gondii in human fibroblasts (uracil incorporation)” value ([1]; 10 μM) was 70% and the “toxicity for fibroblasts (thymidine incorporation)” value [6] was “not toxic”.
CC1(C)N=C(N)N=C(N)N1c1ccc(Cl)cc1 [Cycloguanil] was tested, and the “combined effect of two inhibitors in vitro (additive or synergistic)” value ([7]; T. gondii in culture) was “synergistic with NPMG”.
CC(Oc1ccc(Oc2ccc(C(F)(F)F)cn2)cc1)C(=O)O (centres unmarked) [Fluazifop] was tested, and the “effect on T. gondii ACC activity in crude extracts” value [5] was “relatively low inhibitory activity”.
In the case of CC(Oc1ccc(Oc2ncc(C(F)(F)F)cc2Cl)cc1)C(=O)O (centres unmarked) [Haloxyfop], the “inhibition of ACC activity” value ([5]; 20 μM) is reported as 50% and the “inhibition of ACC activity” value ([5]; 100 μM) is reported as 90%.
In the case of CCc1nc(N)nc(N)c1-c1ccc(Cl)cc1 [Pyrimethamine], the “CPM for B” value [7] is reported as 69217 ± 3253 CPM.
With CC(Oc1ccc(Oc2cnc3cc(Cl)ccc3n2)cc1)C(=O)O (centres unmarked) [Quizalofop, ()-2-[4-[(6-chloro-2-quinoxalinyl)oxy]phenoxy]propanoic acid] the “inhibition of ACC activity” value ([5]; 20 μM) was 50% and the “inhibition of ACC activity” value ([5]; 100 μM) was 90%.
With O=C(NO)c1ccccc1O [SHAM, Salicylhydroxamic acid] the “parasitemia and number of brain cysts” value [8] was “affects parasitemia and number of brain cysts”, the “CPM restricted (tritiated uracil incorporation)” value ([1]; SHAM 0.16 μg/ml (0.19), 4 day, medium around 54,000 CPM) was “around 50%” and the “counts (tritiated uracil incorporation)” value ([1]; SHAM 0.78 μg/ml, 4 day, medium around 54,000, no RH around 1,000 CPM) was “about 8,000 CPM”. For the same molecule, the “approximate 95% C1 count (mean parasite count per field)” value ([2]; SHAM 0.1 μg/ml, 0.2% ETOH, media and ethanol ~1200) was ~1200, the “approximate 95% C1 count (mean parasite count per field)” value ([2]; SHAM 1 μg/ml, 0.2% ETOH, media and ethanol ~1200) was ~1100 and the “approximate 95% C1 count (mean parasite count per field)” value ([2]; SHAM 10 μg/ml, 0.2% ETOH, media and ethanol ~1200) was ~1100. For the same molecule, the “approximate 95% C1 count (mean parasite count per field)” value ([2]; SHAM 100 μg/ml, 0.2% ETOH, media and ethanol ~1200) was ~400 and the “CPM for B” value [7] was 42993 ± 1098 CPM.
Nc1ccc(S(=O)(=O)Nc2ncccn2)cc1 [Sulfadiazine] was tested, and the “manifestations of infection in vivo” value [8] was “reduced manifestations of infection”, the “growth of T. gondii reduced” value [1] was “about 60%” and the “CPM for B” value [7] was 25026 ± 4365 CPM.
In the case of NC[C@@H]1O[C@H](O[C@H]2[C@@H](O)[C@H](O[C@@H]3[C@@H](O)[C@H](N)C[C@H](N)[C@H]3O[C@H]3O[C@H](CO)[C@@H](O)[C@H](O)[C@H]3N)O[C@@H]2CO)[C@H](N)[C@@H](O)[C@@H]1O [paromomycin], the “approximate 95% C1 count (mean parasite count per field)” value ([2]; PRM without ethanol, media alone ~1800) is reported as ~200 and the “approximate 95% C1 count (mean parasite count per field)” value ([2]; paromomycin (PRM) and ethanol, media and ethanol ~1200) is reported as ~100.
